Assay results reported in ChEMBL document CHEMBL3885881, “DrugMatrix”.

Organism: Rattus norvegicus
Experiment: DrugMatrix - Regimen: Daily Repeat
Assay type: toxicity, organism-based, Sprague-Dawley
Parameters: regimen Daily Repeat, gender Male, age 6-8 weeks
Conditions: in vivo, po, […], route oral GAVAGE; for ABSOLUTE BASOPHIL / ABSOLUTE EOSINOPHIL / ABSOLUTE LYMPHOCYTE / ABSOLUTE MONOCYTE / ABSOLUTE SEGMENTED NEUTROPHIL / BASOPHIL / EOSINOPHIL / ERYTHROCYTE COUNT / HEMATOCRIT / HEMOGLOBIN / LEUKOCYTE COUNT / LYMPHOCYTE / MEAN CORPUSCULAR HEMOGLOBIN / MEAN CORPUSCULAR HEMOGLOBIN CONCENTRATION / MEAN CORPUSCULAR VOLUME / MONOCYTE / NEUTROPHIL / NUCLEATED RED BLOOD CELLS / PLATELET COUNT: tissue Blood; for ALANINE AMINOTRANSFERASE / ALKALINE PHOSPHATASE / ASPARTATE AMINOTRANSFERASE / BLOOD UREA NITROGEN / CARBON DIOXIDE / CHLORIDE / CHOLESTEROL / CREATINE PHOSPHOKINASE / CREATININE / GLUCOSE / LACTATE DEHYDROGENASE / LIPASE / PHOSPHORUS / POTASSIUM / SODIUM / TOTAL BILIRUBIN / TOTAL PROTEIN / URIC ACID: tissue Plasma
[1] = 100 mg/kg, dose level Low, time 7 day
[2] = 700 mg/kg, 72 h, dose level High, time 3 day
[3] = 700 mg/kg, dose level High, time 7 day

Cc1ccc(C)c(OCCCC(C)(C)C(=O)O)c1 [GEMFIBROZIL]
ABSOLUTE BASOPHIL [1]: 0 CELLS/uL
ABSOLUTE EOSINOPHIL [1]: 45.5 CELLS/uL
ABSOLUTE LYMPHOCYTE [1]: 9460.33 CELLS/uL
ABSOLUTE MONOCYTE [1]: 128.67 CELLS/uL
ABSOLUTE SEGMENTED NEUTROPHIL [1]: 965.5 CELLS/uL
BASOPHIL [1]: 0%
EOSINOPHIL [1]: 0.5%
ERYTHROCYTE COUNT [1]: 5.75 x10E6/uL
HEMATOCRIT [1]: 35.7%
HEMOGLOBIN [1]: 13.7 G/DL
LEUKOCYTE COUNT [1]: 10.6 x10E3/uL
LYMPHOCYTE [1]: 89.83%
MEAN CORPUSCULAR HEMOGLOBIN [1]: 23.82 pg
MEAN CORPUSCULAR HEMOGLOBIN CONCENTRATION [1]: 38.42 G/DL
MEAN CORPUSCULAR VOLUME [1]: 62.1 fL
MONOCYTE [1]: 1.17%
NEUTROPHIL [1]: 8.5%
NUCLEATED RED BLOOD CELLS [1]: 0 /100WBC
PLATELET COUNT [1]: 1237.17 x10E3/uL
ALANINE AMINOTRANSFERASE [1]: 75.17 u/L
ALKALINE PHOSPHATASE [1]: 388.67 u/L
ASPARTATE AMINOTRANSFERASE [1]: 80.67 u/L
BLOOD UREA NITROGEN [1]: 15.5 mg/dL
CARBON DIOXIDE [1]: 29.17 mmol/L
CHLORIDE [1]: 103.5 MEQ/L
CHOLESTEROL [1]: 70.33 mg/dL
CREATINE PHOSPHOKINASE [1]: 220 u/L
CREATININE [1]: 0.26 mg/dL
GLUCOSE [1]: 138.5 mg/dL
LACTATE DEHYDROGENASE [1]: 151.33 u/L
LIPASE [1]: 11.5 u/L
PHOSPHORUS [1]: 10.83 mg/dL
POTASSIUM [1]: 6.07 MEQ/L
SODIUM [1]: 145.42 MEQ/L
TOTAL BILIRUBIN [1]: 0.15 mg/dL
TOTAL PROTEIN [1]: 6.55 G/DL
URIC ACID [1]: 0.9 mg/dL
ABSOLUTE BASOPHIL [2]: 0 CELLS/uL
ABSOLUTE EOSINOPHIL [2]: 123.83 CELLS/uL
ABSOLUTE LYMPHOCYTE [2]: 14360.17 CELLS/uL
ABSOLUTE MONOCYTE [2]: 300 CELLS/uL
ABSOLUTE SEGMENTED NEUTROPHIL [2]: 899.33 CELLS/uL
BASOPHIL [2]: 0%
EOSINOPHIL [2]: 0.83%
ERYTHROCYTE COUNT [2]: 5.5 x10E6/uL
HEMATOCRIT [2]: 34.9%
HEMOGLOBIN [2]: 13.82 G/DL
LEUKOCYTE COUNT [2]: 15.68 x10E3/uL
LYMPHOCYTE [2]: 91.67%
MEAN CORPUSCULAR HEMOGLOBIN [2]: 25.13 pg
MEAN CORPUSCULAR HEMOGLOBIN CONCENTRATION [2]: 39.6 G/DL
MEAN CORPUSCULAR VOLUME [2]: 63.5 fL
MONOCYTE [2]: 1.83%
NEUTROPHIL [2]: 5.67%
NUCLEATED RED BLOOD CELLS [2]: 0 /100WBC
PLATELET COUNT [2]: 1197.17 x10E3/uL
ALANINE AMINOTRANSFERASE [2]: 74.67 u/L
ALKALINE PHOSPHATASE [2]: 606 u/L
ASPARTATE AMINOTRANSFERASE [2]: 80.5 u/L
BLOOD UREA NITROGEN [2]: 11.33 mg/dL
CARBON DIOXIDE [2]: 30.67 mmol/L
CHLORIDE [2]: 101.5 MEQ/L
CHOLESTEROL [2]: 61 mg/dL
CREATINE PHOSPHOKINASE [2]: 247.5 u/L
CREATININE [2]: 0.21 mg/dL
GLUCOSE [2]: 143.5 mg/dL
LACTATE DEHYDROGENASE [2]: 254.17 u/L
LIPASE [2]: 9.67 u/L
PHOSPHORUS [2]: 8.5 mg/dL
POTASSIUM [2]: 6.29 MEQ/L
SODIUM [2]: 141.78 MEQ/L
TOTAL BILIRUBIN [2]: 0.32 mg/dL
TOTAL PROTEIN [2]: 5.85 G/DL
URIC ACID [2]: 1.33 mg/dL
ABSOLUTE BASOPHIL [3]: 0 CELLS/uL
ABSOLUTE EOSINOPHIL [3]: 34.5 CELLS/uL
ABSOLUTE LYMPHOCYTE [3]: 11212.67 CELLS/uL
ABSOLUTE MONOCYTE [3]: 304.17 CELLS/uL
ABSOLUTE SEGMENTED NEUTROPHIL [3]: 1732 CELLS/uL
BASOPHIL [3]: 0%
EOSINOPHIL [3]: 0.5%
ERYTHROCYTE COUNT [3]: 5.46 x10E6/uL
HEMATOCRIT [3]: 32.9%
HEMOGLOBIN [3]: 12.75 G/DL
LEUKOCYTE COUNT [3]: 13.28 x10E3/uL
LYMPHOCYTE [3]: 85.5%
MEAN CORPUSCULAR HEMOGLOBIN [3]: 23.43 pg
MEAN CORPUSCULAR HEMOGLOBIN CONCENTRATION [3]: 38.82 G/DL
MEAN CORPUSCULAR VOLUME [3]: 60.37 fL
MONOCYTE [3]: 2.17%
NEUTROPHIL [3]: 11.83%
NUCLEATED RED BLOOD CELLS [3]: 0 /100WBC
PLATELET COUNT [3]: 1336.17 x10E3/uL
ALANINE AMINOTRANSFERASE [3]: 90.83 u/L
ALKALINE PHOSPHATASE [3]: 504.17 u/L
ASPARTATE AMINOTRANSFERASE [3]: 94.83 u/L
BLOOD UREA NITROGEN [3]: 12.17 mg/dL
CARBON DIOXIDE [3]: 31.17 mmol/L
CHLORIDE [3]: 101.17 MEQ/L
CHOLESTEROL [3]: 60.5 mg/dL
CREATINE PHOSPHOKINASE [3]: 391.67 u/L
CREATININE [3]: 0.29 mg/dL
GLUCOSE [3]: 135.67 mg/dL
LACTATE DEHYDROGENASE [3]: 275.5 u/L
LIPASE [3]: 12 u/L
PHOSPHORUS [3]: 9.5 mg/dL
POTASSIUM [3]: 5.98 MEQ/L
SODIUM [3]: 142.85 MEQ/L
TOTAL BILIRUBIN [3]: 0.22 mg/dL
TOTAL PROTEIN [3]: 6.58 G/DL
URIC ACID [3]: 0.87 mg/dL
